Experimental data published in patent US5064853A, “4(2-indolyl)2-amino-pentanedioic acids and cholecyostokinin use thereof” (Roussel Uclaf, priority 1989, dated 1991).

Key:
[1] = target: T1, Central CCK receptors (Rattus norvegicus, UniProt P30553); assay: Central receptors: 3H CCK8 binding to rat cortex homogenate; conditions: 0.5 nM 3H CCK8, 25° C., 30 minutes, read-out: Central CCK IC50: concentration necessary to inhibit the fixed specific radioactivity by 50%
T1 construct: The cortices of 20 male rats weighing 150 to 200 g were removed and were ground up with a Polytron; from tissue; host or cells: rat cerebral cortex membrane homogenate
T1 sequence (P30553 1-452): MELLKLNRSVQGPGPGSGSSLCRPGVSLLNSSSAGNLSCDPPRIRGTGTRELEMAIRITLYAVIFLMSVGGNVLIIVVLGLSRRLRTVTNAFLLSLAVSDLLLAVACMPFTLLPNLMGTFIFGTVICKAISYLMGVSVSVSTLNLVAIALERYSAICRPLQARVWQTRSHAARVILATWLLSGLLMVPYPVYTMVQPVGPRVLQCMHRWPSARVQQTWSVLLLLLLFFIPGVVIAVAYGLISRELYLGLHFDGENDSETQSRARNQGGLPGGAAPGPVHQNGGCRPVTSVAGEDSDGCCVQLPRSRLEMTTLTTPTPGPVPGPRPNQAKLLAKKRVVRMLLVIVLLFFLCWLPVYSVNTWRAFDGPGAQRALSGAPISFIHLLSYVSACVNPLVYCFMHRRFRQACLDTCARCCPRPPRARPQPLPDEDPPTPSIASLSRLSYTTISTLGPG
Method: The cortices of 20 male rats weighing 150 to 200 g were removed and were ground up with a Polytron in 0.32M sucrose. After centrifuging, the supernatant was collected and centrifuged. The residue was suspended in 120 ml of Hepes buffer, pH 7.4, (Hepes 10 mM, NaCl 130 mM, MgCl2, 6H2 O 5 mM, bacitracine 250 mg/liter, PMSF 1 mg/liter), and re-centrifuged. The residue was taken up in 120 ml of Hepes buffer pH 7.4, and recentrifuged at 30,000 g for 30 minutes. The residue was then taken up in 500 ml of Hepes buffer pH 7.4, which enabled 240 aliquots of 2 ml of homogenate to be obtained. The incubation was carried out at 25° C. for 30 minutes in the presence of 0.5 nM of 3H CCK8 and the product to be tested (10,000 micromoles for 1 dose, or with a range of 7 doses) or cold CCK8 (10^-6 M), which was the reference product. After the homogenate aliquots were returned to 0° C., they were filtered with Whatman GF/B filters and the filtrates were washed with 3×5 ml of a Tris HCl 50 mM buffer, pH 7.4. The results are expressed in IC50 : concentration necessary to inhibit the fixed specific radioactivity by 50% in the Table below.

[2] = tested on: alimentary intake of a rat; assay: Action on the alimentary intake of a rat; type: in vivo; conditions: 10 mg/kg intra-peritoneally, consumption monitored every hour for 5 hours
Method: The tests were carried out on groups of 5 rats weighing 250±10 g under the following conditions: the animals were placed individually in cages having a feeding trough described by FREGLY (J. Appln. Physiol., 1960, Vol. 15, p. 539) which had the advantage of avoiding the wastage of food presented when using powdered fodder. The rats were accustomed to taking their daily ration over 5 consecutive hours, drinking water being offered ad libitum. The amounts of food ingested were determined individually by weighing the feeding troughs and the consumptions were monitored every hour for 5 hours after the administration of 10 mg/kg of the compound intra-peritoneally. The amounts consumed were expressed in g/100 g of body weight per hour and the averages were compared with those obtained from the control animals by a DUNNET test.

[3] = target: T2, Peripheral CCK receptors (Rattus norvegicus, UniProt P30551); assay: Peripheral receptors: 3H CCK8 binding to rat pancreas homogenate; conditions: 3H CCK8, 25° C., 60 minutes, read-out: Peripheral CCK IC50: concentration necessary to inhibit the fixed specific radioactivity by 50%
T2 construct: The pancreases of 3 male rats weighing 150-200 g were removed and ground with a Polytron; from tissue; host or cells: rat pancreas membrane homogenate
T2 sequence (P30551 1-444): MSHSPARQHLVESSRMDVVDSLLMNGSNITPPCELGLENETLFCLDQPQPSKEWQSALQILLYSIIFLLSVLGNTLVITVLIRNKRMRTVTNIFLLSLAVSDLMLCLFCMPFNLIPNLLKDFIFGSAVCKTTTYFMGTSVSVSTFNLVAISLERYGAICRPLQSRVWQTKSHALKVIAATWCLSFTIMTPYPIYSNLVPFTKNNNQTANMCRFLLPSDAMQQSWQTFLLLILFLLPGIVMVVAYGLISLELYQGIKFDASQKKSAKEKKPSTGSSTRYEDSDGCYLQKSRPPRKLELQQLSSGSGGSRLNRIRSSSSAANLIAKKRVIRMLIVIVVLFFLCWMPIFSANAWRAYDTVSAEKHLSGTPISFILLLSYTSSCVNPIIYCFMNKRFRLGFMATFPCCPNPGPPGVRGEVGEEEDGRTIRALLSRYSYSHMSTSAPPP
Method: The pancreases of 3 male rats weighing 150-200 g were removed and ground with a Polytron (4 grindings, speed 3, with an interval of 10 seconds between grindings) and the homogenate was filtered over a gauze, then centrifuged at 30,000 g for 30 minutes. The residue obtained was taken up in 400 volumes (.perspectiveto.600 ml) of Tris 50 mM HCl buffer, pH 7.4, containing 2 g/liter of BSA, 0.1 mM of bacitracin, 5 mM of MgCl2 and 5 mM of dithiothreitol. 2 ml of homogenate aliquots were incubated at 25° C. for 60 minutes in the presence of […] 3H CCK8 and the product to be tested (10,000 micromoles for 1 dose or with a range of 7 doses) and cold CCK8 (10^-6 M) which was the reference product. After returning to 0° C., the aliquots were filtered with Whatman GF/B filters having been previously washed in a 0.05% solution of polyethyleneimine. The filtrate was washed with 3×5 ml of Tris HCl 50 mM buffer, pH 7.4. The results are expressed in IC50 : concentration necessary to inhibit the fixed specific radioactivity by 50%. (IC50 in nanomoles).

IC50 [1] [nM]	IC50 [3] [nM]	Compound	reduction of alimentary consumption relative to control animals [2]
700	53	Cc1ccc(C(NC(=O)[C@H](CCC(=O)O)NC(=O)c2cc3ccccc3[nH]2)c2ccc(C)cc2)cc1 [Example 2, (S)-4-[[(1H-indol-2-yl)-carbonyl]-amino]-5-[[bis-(4-methylphenyl)-methyl]-amino]-5-oxo pentanoic acid]	15%
10000	96	O=C(O)CC[C@H](NC(=O)c1cc2ccccc2[nH]1)C(=O)NC(c1ccc(Cl)cc1)c1ccc(Cl)cc1 [Example 4, (S)-5-[[bis-(4-chlorophenyl)-methyl]-amino]-5-oxo-4-[[(1H-indol-2-yl)-carbonyl]-amino]-pentanoic acid]	–
682	32	COc1ccccc1C(NC(=O)[C@H](CCC(=O)O)NC(=O)c1cc2ccccc2[nH]1)c1ccccc1 (stereo partly drawn) [Example 9, (4S)-4-[[(1H-indol-2-yl)-carbonyl]-amino]-5-[[(2-methoxyphenyl)-benzyl]-amino]-5-oxo pentanoic acid]	more than 50%
2660	1660	O=C(O)CC[C@H](NC(=O)c1cc2ccccc2[nH]1)C(=O)NC1c2ccccc2CCc2ccccc21 [Example 13, (S)-5-[(10,11-dihydro-dibenzo-[a,d]-cyclohepten-5-yl)-amino]-4-[[(1H-indol-2-yl)-carbonyl]-amino]-5-oxo pentanoic acid]	–
